Columns and labels:
[1] = molecular target: histone deacetylase activity (HeLa nuclear extract); assay: HDAC fluorescent activity assay (Biomol, Fluor de Lys substrate); type: biochemical; conditions: IC50 range
Method in brief: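 HeLa nuclear extract served as the deacetylase source for the acetyl-lysine Fluor de Lys substrate, with or without inhibitor. Developer converts deacetylated substrate to a fluorophore.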

HUT = HUT cell inhibition assay (WST-1 cell viability); type: cell-based; conditions: HUT cells, 72-96 h, WST-1 assay, IC50 range
Method in brief: (§1)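 Cells seeded at 1000-2000/well, grown 24 h, then treated for 72-96 h with 8 concentrations (top 10 μM, 3-fold, 6 replicates). Viability by WST-1; inhibition relative to DMSO, IC50 by sigmoidal variable-slope fit.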

U937 = U937 cell inhibition assay (WST-1 cell viability); type: cell-based; conditions: Homo sapiens, U-937; U937 cells, 72-96 h, WST-1 assay, IC50 range
Method in brief: as §1

HeLa cells = assay: HeLa cell inhibition assay (SRB cell viability); type: cell-based; conditions: Homo sapiens, HeLa, 72 h, IC50 range
Method in brief: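 Log-phase cells seeded at 1000 cells/well, grown 24 h, then exposed to compound (final 20 μM top concentration) for 72 h. Viability by sulphorhodamine B staining, % inhibition relative to DMSO control. IC50 from 8-point sigmoidal variable-slope fit.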

Row | IC50 [1] | IC50 (U937) | IC50 (HeLa cells) | SMILES | IC50 (HUT)
1 | < 100 nM | 331 to 3300 nM | 331 to 3300 nM | O=C(NO)c1cnc(N2CC3C(C2)C3NC(=O)c2ccc3occc3c2)nc1 (centres unmarked) [Example 16, N-Hydroxy 2-{6-[(1-benzofuran-5-ylcarbonyl)amino]-3-azabicyclo[3.1.0]hex-3-yl}pyrimidine-5-carboxamide] | < 330 nM
2 | < 100 nM | < 330 nM | 331 to 3300 nM | O=C(NO)c1cnc(N2CC3CN(Cc4ccc(Cl)cc4)CC3C2)nc1 (centres unmarked) [Example 85, N-Hydroxy 2-[5-(4-chlorobenzyl)hexahydropyrrolo[3,4-c]pyrrol-2(1H)-yl]pyrimidine-5-carboxamide] | < 330 nM
3 | < 100 nM | 331 to 3300 nM | 331 to 3300 nM | O=C(NO)c1cnc(N2CC3C(C2)C3N(CCN2CCCC2=O)S(=O)(=O)c2ccc3ccccc3c2)nc1 (centres unmarked) [Example 48, N-Hydroxy 2-(6-{(naphthalene-2-sulfonyl)-[2-(2-oxopyrrolidin-1-yl)ethyl]amino}-3-aza-bicyclo[3.1.0]hex-3-yl)pyrimidine-5-carboxamide] | 331 to 3300 nM
4 | < 100 nM | 331 to 3300 nM | 331 to 3300 nM | O=C(NO)c1cnc(N2CC3CN(S(=O)(=O)c4ccc5ccccc5c4)CC3C2)nc1 (centres unmarked) [Example 76, N-Hydroxy 2-[5-(naphthalene-2-sulfonyl)hexahydro-pyrrolo[3,4-c]pyrrol-2(1H)-yl]pyrimidine-5-carboxamide] | < 330 nM
5 | < 100 nM | < 330 nM | < 330 nM | O=C(NO)c1cnc(N2CC3C(C2)C3N(CCN2CCOCC2)S(=O)(=O)c2ccc3ccccc3c2)nc1 (centres unmarked) [Example 51] | < 330 nM
6 | < 100 nM | < 330 nM | < 330 nM | O=C(NO)c1cnc(N2CC3CN(Cc4ccc5ccccc5c4)CC3C2)nc1 (centres unmarked) [Example 79, N-Hydroxy 2-(5-naphthalen-2-ylmethylhexahydropyrrolo[3,4-c]pyrrol-2(1H)-yl)pyrimidine-5-carboxamide] | < 330 nM
7 | < 100 nM | < 330 nM | 331 to 3300 nM | O=C(NO)c1cnc(N2CC3C(C2)C3NS(=O)(=O)c2ccc(OC(F)(F)F)cc2)nc1 (centres unmarked) [Example 4, N-Hydroxy 2-(6-{[(4-trifluoromethoxyphenyl)sulfonyl]amino}-3-azabicyclo[3.1.0]hex-3-yl)pyrimidine-5-carboxamide] | < 330 nM
8 | < 100 nM | 331 to 3300 nM | 331 to 3300 nM | O=C(NO)c1cnc(N2CC3C(C2)C3NC(=O)C2CCCCC2)nc1 (centres unmarked) [Example 12, N-Hydroxy 2-{6-[(cyclohexylcarbonyl)amino]-3-azabicyclo[3.1.0]hex-3-yl}pyrimidine-5-carboxamide] | 331 to 3300 nM
9 | < 100 nM | > 3300 nM | 331 to 3300 nM | O=C(Cc1ccsc1)NC1C2CN(c3ncc(C(=O)NO)cn3)CC21 (centres unmarked) [Example 11, N-Hydroxy 2-{6-[(thien-3-ylacetyl)amino]-3-azabicyclo[3.1.0]hex-3-yl}pyrimidine-5-carboxamide] | 331 to 3300 nM
10 | 101 to 1000 nM | 331 to 3300 nM | 331 to 3300 nM | O=C(NO)c1ccc(N2CC3C(C2)C3NCc2ccc3ccccc3c2)cc1 (centres unmarked) [Example 88, N-Hydroxy 4-{6-[(naphthalen-2-ylmethyl)-amino]-3-azabicyclo[3.1.0]hex-3-yl}-benzamide] | 331 to 3300 nM
11 | < 100 nM | 331 to 3300 nM | 331 to 3300 nM | CCCCc1ccc(CNC2C3CN(c4ncc(C(=O)NO)cn4)CC32)cc1 (centres unmarked) [Example 23, N-Hydroxy 2-[6-(4-butylbenzylamino)-3-azabicyclo[3.1.0]hex-3-yl]pyrimidine-5-carboxamide] | < 330 nM
12 | < 100 nM | < 330 nM | < 330 nM | CCN(CC)CCC(=O)N(Cc1ccc2ccccc2c1)C1C2CN(c3ncc(C(=O)NO)cn3)CC21 (centres unmarked) [Example 59, N-Hydroxy 2-{6-[(3-diethylaminopropionyl)naphthalen-2-ylmethylamino]-3-azabicyclo[3.1.0]hex-3-yl}-pyrimidine-5-carboxamide] | < 330 nM
13 | < 100 nM | < 330 nM | 331 to 3300 nM | CC(CNC1C2CN(c3ncc(C(=O)NO)cn3)CC21)c1ccccc1 (centres unmarked) [Example 24, N-Hydroxy 2-{6-[(2-phenylpropyl)amino]-3-azabicyclo[3.1.0]hex-3-yl}pyrimidine-5-carboxamide] | < 330 nM
14 | < 100 nM | > 3300 nM | > 3300 nM | O=C(Cc1ccc(N2CCCS2(=O)=O)cc1)NC1C2CN(c3ncc(C(=O)NO)cn3)CC21 (centres unmarked) [Example 6, N-Hydroxy 2-(6-{2-[4-(1,1-dioxoisothiazolidin-2-yl)phenyl]acetylamino}-3-azabicyclo[3.1.0]hex-3-yl)pyrimidine-5-carboxamide] | > 3300 nM
15 | < 100 nM | < 330 nM | < 330 nM | O=C(Cc1ccc(-c2ccccc2)cc1)NC1C2CN(c3ncc(C(=O)NO)cn3)CC21 (centres unmarked) [Example 19, N-Hydroxy 2-[6-(2-biphenyl-4-yl-acetylamino)-3-azabicyclo[3.1.0]hex-3-yl]pyrimidine-5-carboxamide] | < 330 nM
16 | < 100 nM | < 330 nM | < 330 nM | O=C(NO)c1cnc(N2CC3C(C2)C3N(CCN2CCCC2)S(=O)(=O)c2ccc3ccccc3c2)nc1 (centres unmarked) [Example 46, N-Hydroxy 2-{6-[(naphthalene-2-sulfonyl)-(2-pyrrolidin-1-yl-ethyl)amino]-3-azabicyclo[3.1.0]hex-3-yl}pyrimidine-5-carboxamide] | < 330 nM
17 | < 100 nM | < 330 nM | < 330 nM | CC(=O)N(Cc1ccc2ccccc2c1)C1C2CN(c3ncc(C(=O)NO)cn3)CC21 (centres unmarked) [Example 60, N-Hydroxy 2-[6-(acetylnaphthalen-2-ylmethylamino)-3-azabicyclo[3.1.0]hex-3-yl]pyrimidine-5-carboxamide] | < 330 nM
18 | < 100 nM | 331 to 3300 nM | 331 to 3300 nM | Cn1cc(CC(=O)NC2C3CN(c4ncc(C(=O)NO)cn4)CC32)c2ccccc21 (centres unmarked) [Example 14, N-Hydroxy 2-{6-[2-(1-methyl-1H-indol-3-yl)acetylamino]-3-aza-bicyclo[3.1.0]hex-3-yl}pyrimidine-5-carboxamide] | 331 to 3300 nM
19 | < 100 nM | < 330 nM | < 330 nM | O=C(NO)c1cnc(N2CC3C(C2)C3N(CCN2CCCCC2)S(=O)(=O)c2ccc3ccccc3c2)nc1 (centres unmarked) [Example 53, N-Hydroxy 2-{6-[(naphthalene-2-sulfonyl)-(2-piperidin-1-ylethyl)amino]-3-azabicyclo[3.1.0]hex-3-yl}pyrimidine-5-carboxamide] | < 330 nM
20 | < 100 nM | 331 to 3300 nM | 331 to 3300 nM | O=C(NO)c1cnc(N2CC3C(C2)C3N(Cc2ccc3ccccc3c2)C(=O)CCc2cccnc2)nc1 (centres unmarked) [Example 61, N-Hydroxy 2-{6-[naphthalen-2-ylmethyl-(3-pyridin-3-yl-propionyl)amino]-3-aza-bicyclo[3.1.0]hex-3-yl}pyrimidine-5-carboxamide] | < 330 nM
21 | < 100 nM | 331 to 3300 nM | 331 to 3300 nM | O=C(NO)c1cnc(N2CC3C(C2)C3NC(c2ccccc2)C(F)(F)F)nc1 (centres unmarked) [Example 40, N-Hydroxy 2-{6-[(2,2,2-trifluoro-1-phenylethyl)amino]-3-azabicyclo[3.1.0]hex-3-yl}pyrimidine-5-carboxamide] | < 330 nM
22 | < 100 nM | 331 to 3300 nM | < 330 nM | COc1ccc2c(c1)CCC2N1CC2CN(c3ncc(C(=O)NO)cn3)CC2C1 (centres unmarked) [Example 80, N-Hydroxy 2-[5-(5-methoxyindan-1-yl)hexahydropyrrolo[3,4-c]pyrrol-2(1H)-yl]pyrimidine-5-carboxamide] | < 330 nM
23 | < 100 nM | > 3300 nM | > 3300 nM | O=C(NO)c1cnc(NC2C3CN(S(=O)(=O)c4ccc5ccccc5c4)CC32)nc1 (centres unmarked) [Example 69, N-Hydroxy 2-{[3-(2-naphthylsulfonyl)-3-azabicyclo[3.1.0]hex-6-yl]amino}pyrimidine-5-carboxamide] | 331 to 3300 nM
